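Values below derive from 48-hour exposures of cells grown in 96-well plates, with endpoints linearly interpolated between the two concentrations bracketing the appropriate inhibition level. GI50 is the concentration that inhibits growth by half. TGI denotes the concentration required for complete inhibition of growth.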
Legend:
Test in all cases: growth of human tumour cells (NCI), 48 h
786-0 renal = tested on: 786-0 renal
A498 renal = tested on: A498 renal
A549 NSCLC = tested on: A549 NSCLC
ACHN renal = tested on: ACHN renal
BT-549 breast = tested on: BT-549 breast
CAKI-1 renal = tested on: CAKI-1 renal
CCRF-CEM leukemia = tested on: CCRF-CEM leukemia
COLO 205 colon = tested on: COLO 205 colon
DU-145 prostate = tested on: DU-145 prostate
EKVX NSCLC = tested on: EKVX NSCLC
HCC-2998 colon = tested on: HCC-2998 colon
HCT-116 colon = tested on: HCT-116 colon
HCT-15 colon = tested on: HCT-15 colon
HL-60(TB) leukemia = tested on: HL-60(TB) leukemia
HOP-62 NSCLC = tested on: HOP-62 NSCLC
HOP-92 NSCLC = tested on: HOP-92 NSCLC
HS 578T breast = tested on: HS 578T breast
HT29 colon = tested on: HT29 colon
IGROV1 ovarian = tested on: IGROV1 ovarian
K-562 leukemia = tested on: K-562 leukemia
KM12 colon = tested on: KM12 colon
LOX IMVI melanoma = tested on: LOX IMVI melanoma
M14 melanoma = tested on: M14 melanoma
MALME-3M melanoma = tested on: MALME-3M melanoma
MCF7 breast = tested on: MCF7 breast
MDA-MB-231 breast = tested on: MDA-MB-231 breast
MDA-MB-435 = tested on: MDA-MB-435
MOLT-4 leukemia = tested on: MOLT-4 leukemia
NCI-H226 lung = tested on: NCI-H226 lung
NCI-H23 lung = tested on: NCI-H23 lung
NCI-H522 lung = tested on: NCI-H522 lung
NCI/ADR-RES ovarian = tested on: NCI/ADR-RES ovarian
OVCAR-3 ovarian = tested on: OVCAR-3 ovarian
OVCAR-4 ovarian = tested on: OVCAR-4 ovarian
OVCAR-5 ovarian = tested on: OVCAR-5 ovarian
OVCAR-8 ovarian = tested on: OVCAR-8 ovarian
PC-3 prostate = tested on: PC-3 prostate
RPMI-8226 leukemia = tested on: RPMI-8226 leukemia
RXF 393 renal = tested on: RXF 393 renal
SF-268 CNS = tested on: SF-268 CNS
SF-295 CNS = tested on: SF-295 CNS
SF-539 CNS = tested on: SF-539 CNS
SK-MEL-2 melanoma = tested on: SK-MEL-2 melanoma
SK-MEL-28 melanoma = tested on: SK-MEL-28 melanoma
SK-MEL-5 melanoma = tested on: SK-MEL-5 melanoma
SK-OV-3 ovarian = tested on: SK-OV-3 ovarian
SN12C renal = tested on: SN12C renal
SNB-19 CNS = tested on: SNB-19 CNS
SR leukemia = tested on: SR leukemia
SW-620 colon = tested on: SW-620 colon
T-47D breast = tested on: T-47D breast
TK-10 renal = tested on: TK-10 renal
U251 CNS = tested on: U251 CNS
UACC-257 melanoma = tested on: UACC-257 melanoma
UACC-62 melanoma = tested on: UACC-62 melanoma
UO-31 renal = tested on: UO-31 renal
NCI-H460 lung = tested on: NCI-H460 lung
SNB-75 CNS = tested on: SNB-75 CNS

CNC(=O)c1cc2nc3ccccc3c(=O)n2c2ccccc12
TGI (786-0 renal): > 10 µM | TGI (A498 renal): > 10 µM | TGI (A549 NSCLC): > 10 µM | TGI (ACHN renal): > 10 µM | TGI (BT-549 breast): > 10 µM | TGI (CAKI-1 renal): > 10 µM | TGI (CCRF-CEM leukemia): > 10 µM | TGI (COLO 205 colon): > 10 µM | TGI (DU-145 prostate): > 10 µM | TGI (EKVX NSCLC): > 10 µM | TGI (HCC-2998 colon): > 10 µM | TGI (HCT-116 colon): > 10 µM | TGI (HCT-15 colon): > 10 µM | TGI (HL-60(TB) leukemia): > 10 µM | TGI (HOP-62 NSCLC): > 10 µM | TGI (HOP-92 NSCLC): > 10 µM | TGI (HS 578T breast): > 10 µM | TGI (HT29 colon): > 10 µM | TGI (IGROV1 ovarian): > 10 µM | TGI (K-562 leukemia): > 10 µM | TGI (KM12 colon): > 10 µM | TGI (LOX IMVI melanoma): > 10 µM | TGI (M14 melanoma): > 10 µM | TGI (MALME-3M melanoma): > 10 µM | TGI (MCF7 breast): > 10 µM | TGI (MDA-MB-231 breast): > 10 µM | TGI (MDA-MB-435): > 10 µM | TGI (MOLT-4 leukemia): > 10 µM | TGI (NCI-H226 lung): > 10 µM | TGI (NCI-H23 lung): > 10 µM | TGI (NCI-H522 lung): > 10 µM | TGI (NCI/ADR-RES ovarian): > 10 µM | TGI (OVCAR-3 ovarian): > 10 µM | TGI (OVCAR-4 ovarian): > 10 µM | TGI (OVCAR-5 ovarian): > 10 µM | TGI (OVCAR-8 ovarian): > 10 µM | TGI (PC-3 prostate): > 10 µM | TGI (RPMI-8226 leukemia): > 10 µM | TGI (RXF 393 renal): > 10 µM | TGI (SF-268 CNS): > 10 µM | TGI (SF-295 CNS): > 10 µM | TGI (SF-539 CNS): > 10 µM | TGI (SK-MEL-2 melanoma): > 10 µM | TGI (SK-MEL-28 melanoma): > 10 µM | TGI (SK-MEL-5 melanoma): > 10 µM | TGI (SK-OV-3 ovarian): > 10 µM | TGI (SN12C renal): > 10 µM | TGI (SNB-19 CNS): > 10 µM | TGI (SR leukemia): > 10 µM | TGI (SW-620 colon): > 10 µM | TGI (T-47D breast): > 10 µM | TGI (TK-10 renal): > 10 µM | TGI (U251 CNS): > 10 µM | TGI (UACC-257 melanoma): > 10 µM | TGI (UACC-62 melanoma): > 10 µM | TGI (UO-31 renal): > 10 µM

O=C1NCN(c2ccccc2)C12CCN(CCCC(c1ccc(F)cc1)c1ccc(F)cc1)CC2
GI50 (786-0 renal): 1.67 µM | TGI (786-0 renal): 3.52 µM | GI50 (A498 renal): 1.18 µM | TGI (A498 renal): 4.94 µM | GI50 (A549 NSCLC): 2.56 µM | TGI (A549 NSCLC): 9.68 µM | GI50 (ACHN renal): 2.79 µM | TGI (ACHN renal): 7.23 µM | GI50 (BT-549 breast): 2.53 µM | TGI (BT-549 breast): 7.94 µM | GI50 (CAKI-1 renal): 2.51 µM | TGI (CAKI-1 renal): 7.44 µM | GI50 (CCRF-CEM leukemia): 2.14 µM | TGI (CCRF-CEM leukemia): 6.09 µM | GI50 (COLO 205 colon): 1.72 µM | TGI (COLO 205 colon): 3.24 µM | GI50 (DU-145 prostate): 3.25 µM | TGI (DU-145 prostate): 11.2 µM | GI50 (HCC-2998 colon): 2.24 µM | TGI (HCC-2998 colon): 4.16 µM | GI50 (HCT-116 colon): 1.58 µM | TGI (HCT-116 colon): 2.96 µM | GI50 (HCT-15 colon): 2.09 µM | TGI (HCT-15 colon): 4.71 µM | GI50 (HL-60(TB) leukemia): 1.82 µM | TGI (HL-60(TB) leukemia): 4 µM | GI50 (HOP-62 NSCLC): 1.84 µM | TGI (HOP-62 NSCLC): 3.52 µM | GI50 (HOP-92 NSCLC): 0.397 µM | TGI (HOP-92 NSCLC): 2.62 µM | GI50 (HS 578T breast): 2.17 µM | TGI (HS 578T breast): 6.51 µM | GI50 (HT29 colon): 1.51 µM | TGI (HT29 colon): 3.22 µM | GI50 (IGROV1 ovarian): 2.36 µM | TGI (IGROV1 ovarian): 9.89 µM | GI50 (K-562 leukemia): 1.71 µM | TGI (K-562 leukemia): 4.11 µM | GI50 (KM12 colon): 2.14 µM | TGI (KM12 colon): 4.38 µM | GI50 (LOX IMVI melanoma): 1.8 µM | TGI (LOX IMVI melanoma): 3.32 µM | GI50 (M14 melanoma): 1.67 µM | TGI (M14 melanoma): 3.18 µM | GI50 (MALME-3M melanoma): 1.66 µM | TGI (MALME-3M melanoma): 3.46 µM | GI50 (MCF7 breast): 1.88 µM | TGI (MCF7 breast): 5.65 µM | GI50 (MDA-MB-231 breast): 1.89 µM | TGI (MDA-MB-231 breast): 3.88 µM | GI50 (MDA-MB-435): 1.75 µM | TGI (MDA-MB-435): 3.77 µM | GI50 (MOLT-4 leukemia): 2.31 µM | TGI (MOLT-4 leukemia): 5.99 µM | GI50 (NCI-H226 lung): 7.36 µM | TGI (NCI-H226 lung): 35.5 µM | GI50 (NCI-H23 lung): 3.31 µM | TGI (NCI-H23 lung): 15.2 µM | GI50 (NCI-H460 lung): 1.68 µM | TGI (NCI-H460 lung): 3.08 µM | GI50 (NCI-H522 lung): 1.51 µM | TGI (NCI-H522 lung): 2.93 µM | GI50 (NCI/ADR-RES ovarian): 2.85 µM | TGI (NCI/ADR-RES ovarian): 10.2 µM | GI50 (OVCAR-3 ovarian): 2 µM | TGI (OVCAR-3 ovarian): 3.98 µM | GI50 (OVCAR-4 ovarian): 2.13 µM | TGI (OVCAR-4 ovarian): 9.98 µM | GI50 (OVCAR-5 ovarian): 3.76 µM | TGI (OVCAR-5 ovarian): 16.4 µM | GI50 (OVCAR-8 ovarian): 1.6 µM | TGI (OVCAR-8 ovarian): 3.05 µM | GI50 (PC-3 prostate): 2.49 µM | TGI (PC-3 prostate): 10.7 µM | GI50 (RPMI-8226 leukemia): 1.82 µM | TGI (RPMI-8226 leukemia): 4.1 µM | GI50 (RXF 393 renal): 1.72 µM | TGI (RXF 393 renal): 4.37 µM | GI50 (SF-268 CNS): 2.04 µM | TGI (SF-268 CNS): 4.78 µM | GI50 (SF-295 CNS): 1.5 µM | TGI (SF-295 CNS): 3.1 µM | GI50 (SF-539 CNS): 1.71 µM | TGI (SF-539 CNS): 3.13 µM | GI50 (SK-MEL-2 melanoma): 1.56 µM | TGI (SK-MEL-2 melanoma): 2.98 µM | GI50 (SK-MEL-28 melanoma): 1.62 µM | TGI (SK-MEL-28 melanoma): 3.1 µM | GI50 (SK-MEL-5 melanoma): 1.6 µM | TGI (SK-MEL-5 melanoma): 2.97 µM | GI50 (SK-OV-3 ovarian): 4.2 µM | TGI (SK-OV-3 ovarian): 14.7 µM | GI50 (SN12C renal): 2.45 µM | TGI (SN12C renal): 8.36 µM | GI50 (SNB-19 CNS): 2.99 µM | TGI (SNB-19 CNS): 12.8 µM | GI50 (SNB-75 CNS): 2.07 µM | TGI (SNB-75 CNS): 14.2 µM | GI50 (SR leukemia): 0.704 µM | TGI (SR leukemia): 3.74 µM | GI50 (SW-620 colon): 2.06 µM | TGI (SW-620 colon): 4.58 µM | GI50 (T-47D breast): 2.43 µM | TGI (T-47D breast): 6.49 µM | GI50 (TK-10 renal): 1.79 µM | TGI (TK-10 renal): 4.11 µM | GI50 (U251 CNS): 1.55 µM | TGI (U251 CNS): 2.91 µM | GI50 (UACC-257 melanoma): 1.59 µM | TGI (UACC-257 melanoma): 3.15 µM | GI50 (UACC-62 melanoma): 1.68 µM | TGI (UACC-62 melanoma): 3.15 µM | GI50 (UO-31 renal): 1.28 µM | TGI (UO-31 renal): 3.96 µM

— PubChem BioAssay (NCI)
